Data as given in ChEMBL document CHEMBL1821572, “Discovery of a novel series of selective HCN1 blockers” (Bioorg Med Chem Lett, 2011).

Experiments:
Homo sapiens = species on record: Homo sapiens; experiment: Selectivity for human HCN1 over human HCN4
[1] = molecular target: T1, Potassium/sodium hyperpolarization-activated cyclic nucleotide-gated channel 1 (Homo sapiens, UniProt O60741); experiment: Inhibition of human HCN1 heterologously expressed in HEK-293 cells after 30 mins by VIPR assay; type: cell-based, HEK293
T1 sequence (O60741 whole entry): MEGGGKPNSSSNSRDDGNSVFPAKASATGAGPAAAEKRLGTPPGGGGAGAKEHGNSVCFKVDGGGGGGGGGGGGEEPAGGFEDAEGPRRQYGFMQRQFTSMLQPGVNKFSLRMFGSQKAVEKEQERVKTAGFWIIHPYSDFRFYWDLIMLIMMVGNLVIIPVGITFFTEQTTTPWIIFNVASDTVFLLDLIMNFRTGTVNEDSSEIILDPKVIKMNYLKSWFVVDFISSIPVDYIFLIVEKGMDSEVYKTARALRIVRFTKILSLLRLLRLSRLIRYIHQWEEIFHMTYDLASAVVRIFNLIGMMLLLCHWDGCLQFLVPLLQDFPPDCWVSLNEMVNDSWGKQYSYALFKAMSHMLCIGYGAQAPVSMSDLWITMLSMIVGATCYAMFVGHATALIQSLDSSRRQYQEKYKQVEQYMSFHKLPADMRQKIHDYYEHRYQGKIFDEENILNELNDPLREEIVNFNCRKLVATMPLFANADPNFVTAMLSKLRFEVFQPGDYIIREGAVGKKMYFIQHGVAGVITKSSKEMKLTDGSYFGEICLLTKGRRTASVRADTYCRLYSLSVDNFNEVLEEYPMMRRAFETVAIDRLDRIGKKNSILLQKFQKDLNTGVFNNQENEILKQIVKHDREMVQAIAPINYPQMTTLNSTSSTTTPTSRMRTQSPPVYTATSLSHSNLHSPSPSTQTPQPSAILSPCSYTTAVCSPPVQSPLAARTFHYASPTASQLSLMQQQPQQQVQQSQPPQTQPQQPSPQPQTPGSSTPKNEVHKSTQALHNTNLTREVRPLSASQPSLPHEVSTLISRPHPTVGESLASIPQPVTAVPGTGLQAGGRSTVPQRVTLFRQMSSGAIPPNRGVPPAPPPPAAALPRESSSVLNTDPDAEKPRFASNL

[2] = molecular target: T2, Potassium/sodium hyperpolarization-activated cyclic nucleotide-gated channel 4 (Homo sapiens, UniProt Q9Y3Q4); experiment: Inhibition of human HCN4 heterologously expressed in HEK-293 cells after 30 mins by VIPR assay; type: cell-based, HEK293
T2 sequence (Q9Y3Q4 whole entry): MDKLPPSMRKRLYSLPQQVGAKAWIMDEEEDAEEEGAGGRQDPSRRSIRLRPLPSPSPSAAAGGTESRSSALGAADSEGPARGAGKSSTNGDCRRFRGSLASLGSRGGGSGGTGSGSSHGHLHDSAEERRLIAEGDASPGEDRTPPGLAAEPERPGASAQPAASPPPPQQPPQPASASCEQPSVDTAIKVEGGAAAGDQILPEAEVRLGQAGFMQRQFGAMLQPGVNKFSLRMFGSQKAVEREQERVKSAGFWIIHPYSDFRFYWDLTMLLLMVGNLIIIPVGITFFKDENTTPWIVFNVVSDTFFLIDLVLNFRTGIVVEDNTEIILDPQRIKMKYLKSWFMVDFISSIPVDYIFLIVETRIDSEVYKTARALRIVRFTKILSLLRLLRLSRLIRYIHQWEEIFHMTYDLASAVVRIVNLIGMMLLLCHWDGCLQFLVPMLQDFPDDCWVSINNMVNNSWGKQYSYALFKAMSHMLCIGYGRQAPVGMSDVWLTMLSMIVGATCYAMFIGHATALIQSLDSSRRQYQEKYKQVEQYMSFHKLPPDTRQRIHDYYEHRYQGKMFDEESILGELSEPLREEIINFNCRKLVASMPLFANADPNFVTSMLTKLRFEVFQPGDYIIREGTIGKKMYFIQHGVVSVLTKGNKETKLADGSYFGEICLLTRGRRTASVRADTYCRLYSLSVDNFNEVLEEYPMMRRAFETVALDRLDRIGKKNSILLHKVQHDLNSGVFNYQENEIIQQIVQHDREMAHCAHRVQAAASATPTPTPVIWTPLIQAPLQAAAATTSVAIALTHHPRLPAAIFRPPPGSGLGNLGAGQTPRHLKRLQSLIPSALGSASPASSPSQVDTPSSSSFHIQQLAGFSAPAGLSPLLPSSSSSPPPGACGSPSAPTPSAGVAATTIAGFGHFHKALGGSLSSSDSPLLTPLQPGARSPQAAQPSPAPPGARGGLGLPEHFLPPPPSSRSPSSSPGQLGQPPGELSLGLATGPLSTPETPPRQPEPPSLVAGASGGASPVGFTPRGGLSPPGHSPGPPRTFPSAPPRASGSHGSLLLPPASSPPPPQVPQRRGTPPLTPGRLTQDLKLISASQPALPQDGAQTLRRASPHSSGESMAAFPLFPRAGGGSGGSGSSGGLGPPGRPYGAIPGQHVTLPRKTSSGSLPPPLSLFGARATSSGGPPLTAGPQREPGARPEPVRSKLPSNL

[3] = molecular target: T3, Potassium/sodium hyperpolarization-activated cyclic nucleotide-gated channel 3 (Homo sapiens, UniProt Q9P1Z3); experiment: Inhibition of human HCN3 heterologously expressed in HEK-293 cells after 30 mins by VIPR assay; type: cell-based, HEK293
T3 sequence (Q9P1Z3 whole entry): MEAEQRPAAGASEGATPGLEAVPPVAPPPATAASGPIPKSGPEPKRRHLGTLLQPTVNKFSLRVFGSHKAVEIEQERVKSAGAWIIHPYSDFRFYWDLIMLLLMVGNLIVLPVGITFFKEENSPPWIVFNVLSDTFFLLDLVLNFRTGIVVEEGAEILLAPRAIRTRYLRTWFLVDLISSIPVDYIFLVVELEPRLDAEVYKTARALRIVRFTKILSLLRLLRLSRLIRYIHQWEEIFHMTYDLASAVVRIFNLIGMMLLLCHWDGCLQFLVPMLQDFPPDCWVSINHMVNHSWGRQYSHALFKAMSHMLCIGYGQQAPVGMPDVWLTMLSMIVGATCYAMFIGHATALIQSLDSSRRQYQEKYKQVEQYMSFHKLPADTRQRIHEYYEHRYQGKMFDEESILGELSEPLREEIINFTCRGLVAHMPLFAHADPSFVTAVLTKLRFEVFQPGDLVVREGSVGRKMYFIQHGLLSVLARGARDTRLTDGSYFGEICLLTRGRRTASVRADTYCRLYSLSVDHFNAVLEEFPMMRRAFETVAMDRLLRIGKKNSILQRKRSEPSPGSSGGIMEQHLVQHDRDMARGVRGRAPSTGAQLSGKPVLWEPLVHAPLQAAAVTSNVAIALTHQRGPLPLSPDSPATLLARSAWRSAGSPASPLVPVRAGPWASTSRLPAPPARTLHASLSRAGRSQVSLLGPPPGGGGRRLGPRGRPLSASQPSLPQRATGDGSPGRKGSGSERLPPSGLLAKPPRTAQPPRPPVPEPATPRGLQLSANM

Mus musculus = experiment: Antiallodynic activity in ip dosed C57BL/6 mouse spared-nerve injury model assessed as reduction of tactile allodynia after 60 mins; type: functional; conditions: C57BL/6, ip, 1 h

CCOc1ccccc1C(=O)NCC1(N2CCNCC2)CCCCC1
Selectivity ratio (Homo sapiens): 10 | IC50 [1]: 0.398 µM | IC50 [2]: 3.98 µM | IC50 [3]: 3.16 µM | ED50 (Mus musculus): 6 mg/kg
